Source: patent US20230119479A1, “A HISTONE DEACETYLASE INHIBITOR HAVING A NITROGEN-CONTAINING AROMATIC HETEROCYCLYL GROUP” (SHIONOGI & CO., LTD., priority 2019, published 2023)

Biological target: T1, HDAC2 Human recombinant C-terminal FLAG-tag (Homo sapiens, UniProt Q92769)
T1 construct: FLAG (C); purchased BPS Bioscience 50052
Assay: Measurement of HDAC2 enzyme inhibitory activity (HTRF)
Assay type: biochemical
Details: recombinant HDAC2, H3K9ac peptide, 3 hours room temperature; read-out: HDAC2 IC50
Method: Test Example 1: Measurement of HDAC2 Enzyme Inhibitory Activity
The HDAC2 enzyme inhibitory activity was measured by the method described in the following test example.
To each well of a 384-well plate (Corning, 4514), DMSO solution of the test compound was dispensed at 50 nL/well from a final concentration of 99 μM to 8 points (n=2) in the 3-fold dilution series using Echo555 (Beckman Coulter). 2.5 μl of 0.005 mg/mL recombinant enzyme HDAC2 (HDAC2 Human recombinant C-terminal FLAG-tag, BPS Bioscience, 50052) was added to each well, 2.5 μl of 0.6 μM H3K9ac peptide (Lys(Ac)9-Histone H3 (1-21)-GGK(Biotin), AnaSpec, 64361) was added, mixed, and reacted in a wet box at room temperature for 3 hours. 50 mM Tris HCL pH8.0, 137 mM sodium chloride, 2.7 mM potassium chloride, 1 mM magnesium chloride, 0.01% Tween20, and 0.1% BSA which were diluted with ultrapure water were used as a reaction buffer at this time. After the reaction, 5 μL of 10 μM SAHA (suberoylanilide hydroxamic acid) as a reaction terminator and the 5 μL of a mixture of 2.5 ng of H3K9me0 antibody (ActiveMotif, 61399) labeled in-house with europium cryptate (Cisbio, 65EUSABA) and 125 nM streptavidin-XL665 (Cisbio, 610SAXLA) as an HTRF (time-resolved fluorescence) reagent were added to each well, mixed, and allowed to stand in a wet box at room temperature for reaction. A detection buffer used at this time was 50 mM Tris HCL pH 8.0, 0.8 M potassium fluoride, and 0.1% BSA which were diluted with ultrapure water. After reacting for 2 hours or more, HTRF was measured using a multi-plate reader such as SpectraMax Paradigm (MOLECULAR DEVICE) or RUBYstar (BMG LABTECH). Ratio (665 nm/615-620 nm×10000) was calculated from the fluorescence values of two wavelengths, 615-620 nm and 665 nm, which were excited at 320-340 nm, and the energy transition was obtained.

T1 sequence (Q92769 whole entry): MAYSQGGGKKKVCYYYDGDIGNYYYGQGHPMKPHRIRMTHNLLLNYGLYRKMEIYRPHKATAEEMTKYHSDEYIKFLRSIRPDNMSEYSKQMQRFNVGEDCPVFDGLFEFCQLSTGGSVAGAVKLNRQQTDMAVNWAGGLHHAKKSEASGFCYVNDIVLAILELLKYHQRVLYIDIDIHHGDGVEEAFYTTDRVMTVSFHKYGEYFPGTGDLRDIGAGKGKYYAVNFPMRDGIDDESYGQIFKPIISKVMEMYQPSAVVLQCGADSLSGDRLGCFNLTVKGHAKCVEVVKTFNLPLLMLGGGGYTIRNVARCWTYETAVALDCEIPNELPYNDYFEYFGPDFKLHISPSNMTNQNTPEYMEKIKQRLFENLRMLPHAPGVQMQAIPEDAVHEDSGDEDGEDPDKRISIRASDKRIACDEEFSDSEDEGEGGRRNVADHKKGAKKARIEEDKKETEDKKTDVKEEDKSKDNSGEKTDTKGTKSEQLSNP

SMILES | IC50
Cn1cc(-c2ccc(C(=O)Nc3nc(-c4cncs4)ccc3N)nc2)cn1 [Compound I-061] | 210 nM
Cn1cc(-c2ccc(N)c(NC(=O)c3cnc(N4CCCOCC4)cn3)c2)cn1 [Compound I-296] | 70 nM
Cc1ccc(C(=O)Nc2cc(-c3cnn(C)c3)ccc2N)nc1 [Compound I-155] | 220 nM
CCc1ccc(C(=O)Nc2cc(-c3cnn(C)c3)ccc2N)nc1 [Compound I-175] | 170 nM
Nc1ccc(-c2ccc(F)nc2)cc1NC(=O)c1cc(F)ccn1 [Compound I-186] | 490 nM
CCc1cnc(C(=O)Nc2nc(-c3ccccc3)ccc2N)cn1 [Compound I-260] | 470 nM
CC(C)(C)c1ccc(C(=O)Nc2cc(-c3ccc(F)nc3)ccc2N)nc1 [Compound I-191] | 240 nM
Nc1ccc(-c2ccc(F)nc2)cc1NC(=O)c1cnc(N2CC(CO)(CCl)C2)cn1 [Compound I-222] | 80 nM
CN(C)c1ccc(C(=O)Nc2nc(-n3cccc3)ccc2N)nc1 [Compound I-226] | 450 nM
Nc1ccc(-c2ccc(F)nc2)cc1NC(=O)c1ccc(CN2CCCCC2=O)cn1 [Compound I-108] | 84 nM
CC(C)Nc1cnc(C(=O)Nc2cc(-n3ccc(F)c3)ccc2N)cn1 [Compound I-301] | 310 nM
Nc1ccc(-c2ccc(F)nc2)cc1NC(=O)c1cnc(N2CCC2(CO)CCl)cn1 (centres unmarked) [Compound I-225] | 90 nM
Nc1ccc(-c2ccc(F)nc2)cc1NC(=O)c1cnc2[nH]ccc2n1 [Compound I-086] | 180 nM
Nc1ccc(-c2ccc(F)nc2)cc1NC(=O)c1cnc(N2CC3(CCC3)C2)cn1 [Compound I-223] | 90 nM
Cn1cc(-c2cnc(C(=O)Nc3nc(-c4ccc(F)nc4)ccc3N)cn2)cn1 [Compound I-079] | 480 nM
Nc1ccc(-c2cncs2)cc1NC(=O)c1ccc(Cl)cn1 [Compound I-071] | 160 nM
Nc1ccc(-c2cncs2)cc1NC(=O)c1ccc(OC(F)(F)F)cn1 [Compound I-021] | 220 nM
Cn1cc(-c2ccc(N)c(NC(=O)c3cnc(NC4CCOCC4)cn3)c2)cn1 [Compound I-290] | 110 nM
Cn1cc(-c2ccc(N)c(NC(=O)c3cnc(N4CCC4)cn3)c2)cn1 [Compound I-238] | 150 nM
Nc1ccc(-n2cccc2)nc1NC(=O)c1ccc(N2CCOCC2)cn1 [Compound I-206] | 500 nM

SMILES | IC50
Cc1cnc(C(=O)Nc2cc(-c3ccc(F)nc3)ccc2N)c(F)c1 [Compound I-209] | 150 nM
Nc1ccc(-c2ccc(F)nc2)cc1NC(=O)c1cnc(OC2CCOCC2)cn1 [Compound I-287] | 170 nM
COCc1ccc(C(=O)Nc2cc(-c3ccc(F)nc3)ccc2N)nc1 [Compound I-208] | 150 nM
Cn1cc(-c2ccc(C(=O)Nc3cc(-c4cnco4)ccc3N)nc2)nn1 [Compound I-011] | 57 nM
CCCCc1ccc(C(=O)Nc2cc(-c3cncs3)ccc2N)nc1 [Compound I-057] | 320 nM
Nc1ccc(-c2ccc(F)nc2)cc1NC(=O)c1cnc(N2CC(Cl)(CCO)C2)cn1 [Compound I-224] | 100 nM
Cn1cc(-c2ccc(N)c(NC(=O)c3cnc(N4Cc5cccnc5C4)cn3)c2)cn1 [Compound I-297] | 100 nM
Nc1ccc(-c2ccc(F)nc2)cc1NC(=O)c1ccc(OCC(F)(F)F)cn1 [Compound I-135] | 470 nM
Cn1cc(-c2ccc(C(=O)Nc3nc(-c4cccs4)ccc3N)nc2)nn1 [Compound I-034] | 280 nM
Nc1ccc(-c2ccc(F)nc2)cc1NC(=O)c1ccc(OC(F)F)cn1 [Compound I-143] | 390 nM
Nc1ccc(-c2ccc(F)nc2)cc1NC(=O)c1cnc(N2CC3(COC3)C2)cn1 [Compound I-245] | 70 nM
Nc1ccc(-c2cncs2)cc1NC(=O)c1cc2c(cn1)OCCO2 [Compound I-073] | 120 nM
Nc1ccc(-c2ccc(F)nc2)cc1NC(=O)c1cnc(NCc2ccccn2)cn1 [Compound I-277] | 40 nM
COCc1ccc(C(=O)Nc2cc(-c3cnn(C)c3)ccc2N)nc1 [Compound I-207] | 250 nM
Nc1ccc(-c2ccc(F)nc2)cc1NC(=O)c1cnc(N2CCC23COC3)cn1 [Compound I-236] | 70 nM
CCN(C)c1cnc(C(=O)Nc2cc(-c3ccc(F)nc3)ccc2N)cn1 [Compound I-220] | 50 nM
CCOc1ccc(C(=O)Nc2cc(-c3cnn(C)c3)ccc2N)nc1 [Compound I-165] | 200 nM
Nc1ccc(-c2cncs2)cc1NC(=O)c1ccc(C2CC2)cn1 [Compound I-101] | 92 nM
Cn1cc(-c2ccc(N)c(NC(=O)c3ccc(N4CCCC4)nn3)c2)cn1 [Compound I-272] | 230 nM
Nc1ccc(-c2ccc(F)nc2)cc1NC(=O)c1cnc(N2CCOCC2)cn1 [Compound I-303] | 70 nM

SMILES | IC50
Nc1ccc(-c2ccc(F)nc2)cc1NC(=O)c1ccc(C2COC2)cn1 [Compound I-246] | 110 nM
Nc1ccc(-c2ccc(F)nc2)cc1NC(=O)c1cnc(OCC(F)F)cn1 [Compound I-151] | 220 nM
COCCOc1cnc(C(=O)Nc2cc(-c3ccc(F)nc3)ccc2N)cn1 [Compound I-229] | 130 nM
CC(=O)N(C)c1cnc(C(=O)Nc2cc(-c3cnn(C)c3)ccc2N)cn1 [Compound I-244] | 470 nM
Cn1cc(-c2ccc(N)c(NC(=O)c3ccc(N4CCOCC4)nn3)c2)cn1 [Compound I-275] | 260 nM
Cn1cc(-c2ccc(N)c(NC(=O)c3cc4c(cn3)OCCO4)c2)cn1 [Compound I-098] | 240 nM
CCc1cnc(C(=O)Nc2nc(-n3cccc3)ccc2N)cn1 [Compound I-261] | 260 nM
COc1cnc(C(=O)Nc2cc(-c3ccc(F)nc3)ccc2N)cn1 [Compound I-120] | 240 nM
Nc1ccc(-c2ccc(F)nc2)cc1NC(=O)c1ccc(CN2CCCC2=O)cn1 [Compound I-104] | 85 nM
Nc1ccc(-c2ccc(F)nc2)cc1NC(=O)c1ccc(C2CC2)cn1 [Compound I-111] | 150 nM
Nc1ccc(-c2ccc(F)nc2)cc1NC(=O)c1cnc(N2CC(O)C2)cn1 [Compound I-282] | 50 nM
Nc1ccc(-c2ccc(F)nc2)cc1NC(=O)c1cnc(N2CCC2)cn1 [Compound I-221] | 50 nM
CC(C)Nc1ccc(C(=O)Nc2cc(-c3ccc(F)nc3)ccc2N)nn1 [Compound I-273] | 230 nM
Cc1ncc(-c2ccc(N)c(NC(=O)c3ccc(-c4cnn(C)c4)cn3)c2)s1 [Compound I-032] | 140 nM
Cn1cc(-c2ccc(C(=O)Nc3cc(-c4ccon4)ccc3N)nc2)cn1 [Compound I-084] | 310 nM
Cn1cc(-c2ccc(N)c(NC(=O)c3cnc(CF)cn3)c2)cn1 [Compound I-147] | 290 nM
COc1ccnc(C(=O)Nc2cc(-c3ccc(F)nc3)ccc2N)c1 [Compound I-150] | 310 nM
Cn1cc(-c2ccc(N)c(NC(=O)c3cc(-c4cnn(C)c4)on3)c2)cn1 [Compound I-197] | 240 nM

Same assay, conditions: recombinant HDAC2, H3K9ac peptide; read-out: IC50 (HDAC2)

SMILES | IC50
CCC(=O)Nc1ccc(C(=O)Nc2nc(-c3ccccc3)ccc2N)nc1 [Compound I-308] | 280 nM
Nc1ccc(-c2cccnc2)cc1NC(=O)c1cnc(N2CCOCC2)cn1 [Compound I-312] | 45 nM
CC(=O)Nc1ccc(C(=O)Nc2nc(-n3cccc3)ccc2N)nc1 [Compound I-305] | 130 nM
CS(=O)(=O)Nc1cnc(C(=O)Nc2cc(-c3ccc(F)nc3)ccc2N)cn1 [Compound I-311] | 150 nM
